Data published in the supplement of paper PMC6045584.
± gives the standard deviation of the averaged measurements.

Experiments:
[1] = compound: C[C@@H](Oc1cc(-c2cnn(C3CCNCC3)c2)cnc1N)c1c(Cl)ccc(F)c1Cl; assay: surviving fraction relative to DMSO-only wells; higher = less growth inhibition; settings: exposure time: 5 days
In short: (§1)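 Log-phase tumour cell lines, 250–500 cells per well in 384-well plates, received inhibitors at 0.5, 1, 5, 10, 50, 100, 500 and 1000 nM continuously for five days, starting 24 hours after seeding. Viability was quantified with CellTiter-Glo luminescence and normalised to the median of DMSO-only wells to give surviving fraction. Three screens were run per line, and a line stayed in only with replicate Pearson r >0.7 and median Z' >0.3.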

[2] = compound: CNCc1ccc(-c2[nH]c3cc(F)cc4c3c2CCNC4=O)cc1; assay: as above; settings: exposure time: 5 days
In short: as §1

| Test System | surviving fraction ([1]; 0.5 nM) | surviving fraction ([1]; 1 nM) | surviving fraction ([1]; 5 nM) | surviving fraction ([1]; 10 nM) | surviving fraction ([1]; 50 nM) | surviving fraction ([1]; 100 nM) | surviving fraction ([1]; 500 nM) | surviving fraction ([1]; 1000 nM) | surviving fraction ([2]; 0.5 nM) | surviving fraction ([2]; 1 nM) | surviving fraction ([2]; 5 nM) | surviving fraction ([2]; 10 nM) | surviving fraction ([2]; 50 nM) | surviving fraction ([2]; 100 nM) | surviving fraction ([2]; 500 nM) | surviving fraction ([2]; 1000 nM) |
| --- | --- | --- | --- | --- | --- | --- | --- | --- | --- | --- | --- | --- | --- | --- | --- | --- |
| MDAMB436 BREAST | 0.833 ± 0.046 | 0.828 ± 0.06 | 0.844 ± 0.057 | 0.822 ± 0.046 | 0.996 ± 0.014 | 0.962 ± 0.067 | 0.872 ± 0.036 | 0.736 ± 0.027 | 0.882 ± 0.12 | 0.925 ± 0.083 | 0.874 ± 0.092 | 0.82 ± 0.1 | 0.62 ± 0.11 | 0.587 ± 0.053 | 0.542 ± 0.097 | 0.531 ± 0.064 |
| LM7 BONE | 0.745 ± 0.03 | 0.765 ± 0.027 | 0.779 ± 0.026 | 0.782 ± 0.075 |  | 0.859 ± 0.081 | 0.366 ± 0.031 | 0.168 ± 0.0087 | 0.912 ± 0.043 | 0.965 ± 0.015 | 0.986 ± 0.06 | 1.01 ± 0.016 | 0.752 ± 0.042 | 0.679 ± 0.1 | 0.497 ± 0.013 | 0.451 ± 0.0082 |
| HELA CERVIX | 0.969 ± 0.02 |  | 0.948 ± 0.018 | 0.895 ± 0.072 | 1.02 ± 0.027 | 1.06 ± 0.055 | 0.811 ± 0.05 | 0.258 ± 0.015 | 1.09 ± 0.093 | 1.09 ± 0.08 | 1.08 ± 0.054 | 1.03 ± 0.07 | 1.16 ± 0.11 | 1.12 ± 0.16 | 1.14 ± 0.079 | 1.09 ± 0.071 |
| 93VU HEADNECK | 0.809 ± 0.025 | 0.816 ± 0.02 | 0.835 ± 0.043 | 0.866 ± 0.068 | 1.08 ± 0.068 | 1.06 ± 0.083 | 0.77 ± 0.02 | 0.521 ± 0.068 | 0.958 ± 0.074 | 0.994 ± 0.09 | 1.08 ± 0.081 | 1.01 ± 0.028 | 0.892 ± 0.07 | 0.859 ± 0.063 | 0.927 ± 0.04 | 0.894 ± 0.036 |
| ZR751 BREAST | 0.874 ± 0.087 | 0.924 ± 0.052 | 0.873 ± 0.082 | 0.797 ± 0.046 | 0.82 ± 0.14 | 0.967 ± 0.052 | 0.727 ± 0.074 | 0.699 ± 0.077 | 0.991 ± 0.15 | 0.962 ± 0.049 | 0.981 ± 0.075 | 1.1 ± 0.11 | 0.873 ± 0.056 | 0.903 ± 0.075 | 0.823 ± 0.037 | 0.709 ± 0.12 |
| S68 BREAST | 0.733 ± 0.09 | 0.819 ± 0.31 |  | 0.838 ± 0.19 |  | 0.847 ± 0.16 | 0.567 ± 0.19 | 0.398 ± 0.084 | 1.19 ± 0.22 | 0.82 ± 0.23 | 0.959 ± 0.1 | 0.996 ± 0.26 | 0.676 ± 0.18 | 0.696 ± 0.17 | 0.691 ± 0.15 | 0.425 ± 0.11 |
| SCC003 HEADNECK | 0.763 ± 0.099 |  | 0.835 ± 0.042 | 0.818 ± 0.03 | 1.04 ± 0.047 | 0.982 ± 0.047 | 0.672 ± 0.081 | 0.417 ± 0.025 | 1.03 ± 0.045 | 1.05 ± 0.016 | 1.1 ± 0.059 | 1.05 ± 0.078 | 1.07 ± 0.047 | 1.05 ± 0.091 | 0.99 ± 0.11 | 0.918 ± 0.057 |
| 22RV1 PROSTATE | 0.954 ± 0.079 | 1.01 ± 0.02 | 0.958 ± 0.022 | 0.944 ± 0.033 |  |  | 0.59 ± 0.078 | 0.406 ± 0.027 | 1.09 ± 0.051 | 1.13 ± 0.09 | 1.02 ± 0.075 | 0.968 ± 0.12 | 1.28 ± 0.32 | 1.04 ± 0.061 | 1.014 ± 0.0031 | 1.11 ± 0.24 |
| A549 LUNG |  | 0.942 ± 0.01 |  | 0.909 ± 0.0099 | 1.01 ± 0.014 | 1.04 ± 0.064 | 1.009 ± 0.0093 | 0.552 ± 0.031 | 1.1 ± 0.039 | 1.07 ± 0.03 | 1.057 ± 0.0071 | 1.06 ± 0.029 | 1.14 ± 0.066 | 1.05 ± 0.06 | 1.08 ± 0.027 | 1.08 ± 0.034 |
| SG43 HEADNECK | 1.14 ± 0.1 | 1.22 ± 0.16 |  | 1.09 ± 0.22 | 0.946 ± 0.37 | 0.816 ± 0.13 | 0.564 ± 0.14 | 0.256 ± 0.082 | 1.13 ± 0.22 | 1.05 ± 0.17 | 0.927 ± 0.14 | 0.82 ± 0.18 | 1.06 ± 0.26 | 1.13 ± 0.24 | 1.15 ± 0.14 | 1.46 ± 0.17 |
| JURKAT HAEMATOPOIETIC AND LYMPHOID TISSUE | 0.993 ± 0.024 | 0.993 ± 0.029 |  | 0.98 ± 0.013 | 0.984 ± 0.021 | 0.943 ± 0.019 | 0.235 ± 0.013 | 0.195 ± 0.013 | 1.09 ± 0.018 | 1.1 ± 0.029 | 1.04 ± 0.019 | 1.02 ± 0.024 | 1.01 ± 0.049 | 1.01 ± 0.029 | 0.979 ± 0.021 | 0.916 ± 0.047 |
| 143B BONE | 0.997 ± 0.012 |  |  | 0.997 ± 0.012 |  | 1.002 ± 0.0092 | 0.811 ± 0.039 | 0.643 ± 0.061 | 1.02 ± 0.037 | 1.04 ± 0.011 | 1.07 ± 0.037 | 1.1 ± 0.073 | 1.11 ± 0.14 | 1.04 ± 0.046 | 1.07 ± 0.15 | 1.04 ± 0.067 |
| SCC36 HEADNECK | 0.784 ± 0.039 | 0.784 ± 0.07 | 0.742 ± 0.077 | 0.742 ± 0.071 | 0.913 ± 0.021 |  | 0.403 ± 0.022 | 0.255 ± 0.011 | 1.02 ± 0.15 | 0.999 ± 0.1 | 1.11 ± 0.024 | 1.07 ± 0.1 | 0.763 ± 0.057 | 0.728 ± 0.018 | 0.629 ± 0.019 | 0.592 ± 0.069 |
| SUM159 BREAST | 1.07 ± 0.2 | 1.07 ± 0.17 | 1.07 ± 0.18 | 1.05 ± 0.16 | 1.07 ± 0.19 | 0.984 ± 0.06 | 1.04 ± 0.19 | 0.94 ± 0.086 | 1.09 ± 0.024 | 1.1 ± 0.027 | 1.09 ± 0.035 | 1.07 ± 0.02 | 1.06 ± 0.044 | 1.04 ± 0.0053 | 1.06 ± 0.019 | 1.05 ± 0.018 |
| HCC202 BREAST | 1.31 ± 0.55 | 1.08 ± 0.25 | 1.31 ± 0.015 | 1.05 ± 0.069 | 1.32 ± 0.23 | 1.37 ± 0.17 |  |  | 0.936 ± 0.073 | 1.2 ± 0.39 | 1.21 ± 0.31 | 1.08 ± 0.087 | 1.14 ± 0.21 | 0.78 ± 0.12 | 0.844 ± 0.033 | 0.867 ± 0.13 |
| OSHN BONE | 0.908 ± 0.013 | 0.9047 ± 0.0064 | 0.91 ± 0.0079 | 0.9 ± 0.01 | 0.992 ± 0.023 | 0.971 ± 0.018 | 0.868 ± 0.013 | 0.189 ± 0.029 | 1.03 ± 0.028 | 1.06 ± 0.028 | 1.01 ± 0.031 | 1.02 ± 0.048 | 0.945 ± 0.031 | 0.933 ± 0.029 | 0.959 ± 0.02 | 0.857 ± 0.036 |
| CADOES1 SOFT TISSUE |  | 0.89 ± 0.16 | 0.961 ± 0.088 | 0.936 ± 0.036 | 0.93 ± 0.042 | 0.941 ± 0.04 | 0.576 ± 0.054 | 0.291 ± 0.033 | 1 ± 0.21 | 0.975 ± 0.19 | 0.903 ± 0.081 | 0.838 ± 0.045 | 1.02 ± 0.068 | 0.856 ± 0.12 | 0.799 ± 0.14 | 0.715 ± 0.22 |
| SCC47 HEADNECK | 0.909 ± 0.012 | 0.9017 ± 0.0072 | 0.988 ± 0.018 | 0.924 ± 0.037 | 1.06 ± 0.031 | 0.96 ± 0.066 | 0.721 ± 0.017 | 0.472 ± 0.024 | 1.04 ± 0.067 | 1.03 ± 0.042 | 1.08 ± 0.048 | 1.12 ± 0.025 | 1.04 ± 0.07 | 1.05 ± 0.074 | 1.05 ± 0.032 | 0.987 ± 0.063 |
| BT20 BREAST | 0.82 ± 0.047 | 0.792 ± 0.032 | 0.808 ± 0.092 | 0.821 ± 0.071 | 1 ± 0.074 | 1 ± 0.052 | 0.786 ± 0.04 | 0.468 ± 0.078 | 1.09 ± 0.095 | 1.05 ± 0.055 | 1.03 ± 0.081 | 1.04 ± 0.059 | 0.792 ± 0.14 | 0.814 ± 0.046 | 0.815 ± 0.11 | 0.872 ± 0.014 |
| SKBR3 BREAST | 0.731 ± 0.039 | 0.814 ± 0.075 |  | 0.859 ± 0.071 | 0.997 ± 0.12 |  | 0.759 ± 0.035 |  | 0.907 ± 0.11 | 0.895 ± 0.12 | 0.9 ± 0.14 | 0.841 ± 0.11 | 0.703 ± 0.1 | 0.813 ± 0.052 | 0.733 ± 0.14 | 0.734 ± 0.026 |
| SJSA1 BONE | 0.881 ± 0.019 | 0.9053 ± 0.0031 | 0.912 ± 0.062 | 0.935 ± 0.023 | 1.06 ± 0.069 | 1.05 ± 0.05 | 0.889 ± 0.053 | 0.622 ± 0.0085 | 1.35 ± 0.059 | 1.7 ± 0.1 | 1.6 ± 0.045 | 1.8 ± 0.1 | 1.7 ± 0.073 | 1.76 ± 0.059 | 1.65 ± 0.017 | 1.74 ± 0.068 |
| LNCAP PROSTATE | 1.07 ± 0.056 | 1.16 ± 0.13 | 1.15 ± 0.034 | 1.13 ± 0.12 | 1 ± 0.045 | 0.801 ± 0.17 | 0.528 ± 0.075 | 0.464 ± 0.031 | 1.09 ± 0.059 | 1.14 ± 0.038 | 1.01 ± 0.095 | 0.907 ± 0.093 | 1.02 ± 0.047 | 0.946 ± 0.013 | 0.969 ± 0.056 | 0.73 ± 0.057 |
